Data published in US20260256816A1, “PHARMACEUTICAL COMPOSITION FOR PREVENTING OR TREATING BRAIN TUMOR” (ASTRION INC., priority 2023, published 2026).

How the values were obtained:
U87-MG cells [1] = experiment: Cell migration assay (SPLScar Block); type: cell-based; settings: Homo sapiens, U-87 MG, 24 hours, FIG. 3, read-out: inhibition of cell migration compared to the untreated control
Protocol: Human glioblastoma cell line U87-MG cells were seeded at a density of 8×10^4 cells/well on a SPLScar Block (SPL) plate and cultured for 24 hours. After 24 hours, the block was removed, and the cells were treated with the compound AON-MG23-01 or AON-MG23-02 of the present invention, and cultured at 37° C. in a CO2 incubator for 24 hours. The compound of the present invention was treated at concentrations of 0, 1, 2, and 4 μM. Images were taken before and after culture, and the distance of cell migration was measured using Image J software. Based on the results, whether the cell migration was inhibited was analyzed.

ANO1 = experiment: Western blot of ANO1 protein expression in glioblastoma cell line; type: cell-based, human; settings: U87-MG, 48 hours; for expression of ANO1 protein compared to the untreated control: 0, 8, 16, 32 μM, FIGS. 9A to 9D
Protocol: (§1) It was determined whether the compound of the present invention affects the expression of ANO1 and EGFR proteins in a glioblastoma cell line. The human glioblastoma cell line U87-MG was seeded at a density of 1×10^6 cells in a 60 mm dish, and cultured for 24 hours, and the cells were then treated with the compound (AON-MG23-01 or AON-MG23-02; each at 0, 1, 2, and 4 μM) of the present invention, and cultured for 48 hours. The cultured cells were harvested and the harvested cells were lysed for Western blotting. An anti-ANO1 antibody (Abcam, ab53212), an anti-pEGFR antibody (Cell Signaling, #4407S), an anti-EGFR antibody (Cell Signaling, #4267S), and an anti-α-tubulin antibody (Santacruz, #SC-5286) were used as the antibodies for Western blotting. Protein concentration was quantified using the BSA method (a protein quantitation assay, a bovine serum albumin assay) (Pierce, Cat. 23225). After the cells were lysed, an equal amount (10 μg) of the proteins obtained from the lysed cells was subjected to 10% SDS-PAGE to separate the proteins depending on their molecular weights, transferred to a PVDF membrane (Bio-Rad), and then treated with a blocking buffer (5% skim milk in a Tris-buffered saline (TBS) buffer containing 0.1% Tween 20; TBS-T) at room temperature for an hour. Thereafter, the PVDF membrane was treated with the primary antibody, and reacted at 4° C. for 16 hours. […] The amount of each protein was quantified and analyzed using Image J software.
(§2) The inhibitory effects of the compound AON-MG23-02 of the present invention, the EGFR inhibitor Osimertinib, and the ANO1 inhibitor CaCCinh-A01 on the expression of ANO1, EGFR, and pEGFR proteins in a glioblastoma cell line were compared. […] Protein concentration was quantified using the BSA method (a protein quantitation assay, a bovine serum albumin assay) (Pierce, Cat. 23225). […] The amount of each protein was quantified and analyzed using Image J software. […]

EGFR = experiment: Western blot of EGFR protein expression in glioblastoma cell line; type: cell-based, human; settings: U87-MG, 48 hours; for expression of EGFR protein compared to the untreated control: 0, 8, 16, 32 μM, FIGS. 9A to 9D
Protocol: as §1, §2

U87-MG cells [2] = experiment: Matrigel Transwell invasion assay (metastasis inhibition); type: cell-based, human; settings: for degree of penetration into Matrigel compared to the untreated control: 24 hours
Protocol: A human glioblastoma cell line U87-MG was seeded at a density of 8×10^4 cells/well on Matrigel-coated filters (Transwell invasion chambers, Corning), and the cells were then treated with the compound (AON-MG23-01 or AON-MG23-02; each at 0, 1, 2, and 4 μM) of the present invention, and cultured at 37° C. in a CO2 incubator for 24 hours. After the culturing was completed, the cells were fixed and stained using the Diff-Quick Stain kit (Sysmex, Kobe, Japan). Images of the stained cells were taken under a microscope, the cells were counted using Image J software, and statistical analysis was then performed.
A human glioblastoma cell line U87-MG was seeded at a density of 6×10^4 cells/well on the top of a Matrigel-coated filter (Transwell invasion chambers, Corning), treated with 4 μM of the compound AON-MG23-02 of the present invention, 4 μM of the EGFR inhibitor Osimertinib, 100 μM of the ANO1 inhibitor CaCCinh-A01, or a combination of 4 μM of Osimertinib and 100 μM of CaCCinh-A01, and then cultured at 37° C. in a CO2 incubator for 16 hours. After the culturing was completed, the cells were fixed and stained using a Diff-Quick stain kit (Sysmex, Kobe, Japan). Images of the stained cells were taken under a microscope, the cells were counted using Image J software, and statistical analysis was then performed.
A human glioblastoma cell line U87-MG was seeded at a density of 8×10^4 cells/well on the top of a Matrigel-coated filter (Transwell invasion chambers, Corning), and then treated with 0, 8, 16, and 32 μM of each of the compound derivatives AON-MG23-05, AON-MG23-06, AON-MG23-07, and AON-MG23-08 of the present invention, and cultured at 37° C. in a CO2 incubator for 24 hours. After the culturing was completed, the cells were fixed and stained using a Diff-Quick stain kit (Sysmex, Kobe, Japan). Images of the stained cells were taken under a microscope, the cells were counted using Image J software, and statistical analysis was then performed.

U87-MG cells [3] = experiment: CCK assay, cell proliferation of human glioblastoma cells; type: cell-based; settings: 0, 1, 2, 4 μM, 48 hours, FIG. 2
Protocol: Human glioblastoma cell line U87-MG cells were seeded at a density of 1×10^4 cells/well in a 96-well plate and cultured for 24 hours. Thereafter, the cells were treated with DMSO as a control and the compound AON-MG23-01 or AON-MG23-02 of the present invention, and then cultured for 48 hours. The compound of the present invention was treated at various concentrations of 0, 1, 2, and 4 μM. 10 μL of a CCK reagent was added and reacted for an hour, and the absorbance was then measured at 450 nm.

pEGFR = experiment: Western blot of pEGFR protein expression in glioblastoma cell line; type: cell-based, human; settings: U87-MG; 4 μM; 48 hours; vs 2 μM Osimertinib, 100 μM CaCCinh-A01, combination; FIGS. 8A, 8B
Protocol: The inhibitory effects of the compound AON-MG23-02 of the present invention, the EGFR inhibitor Osimertinib, and the ANO1 inhibitor CaCCinh-A01 on the expression of ANO1, EGFR, and pEGFR proteins in a glioblastoma cell line were compared. A human glioblastoma cell line U87-MG was seeded at a density of 100×10^4 cells/dish in a 60 mm dish, and cultured for 24 hours. Thereafter, the cells were treated with 4 μM of AON-MG23-02, 2 μM of the EGFR inhibitor Osimertinib, 100 μM of the ANO1 inhibitor CaCCinh-A01, or a combination of 2 μM of Osimertinib and 100 μM of CaCCinh-A01, and cultured for 48 hours. The cultured cells were harvested and the harvested cells were lysed for Western blotting. An anti-ANO1 antibody (Abcam, ab53212), an anti-pEGFR antibody (Cell Signaling, #4407S), an anti-EGFR antibody (Cell Signaling, #4267S), and an anti-ACTIN antibody (sigma, #A2066) were used as antibodies for Western blotting. Protein concentration was quantified using the BSA method (a protein quantitation assay, a bovine serum albumin assay) (Pierce, Cat. 23225). […] The amount of each protein was quantified and analyzed using Image J software.

[4] = 4 μM, vs 2 μM Osimertinib, 100 μM CaCCinh-A01, combination, FIGS. 8A, 8B
[5] = 0, 8, 16, 32 μM, FIGS. 10A, 10B

SMILES | inhibition at 4 µM (U87-MG cells [1]) [%] | degree of penetration into Matrigel compared to the untreated control (U87-MG cells [2]; 0, 1, 2, 4 μM, FIG. 4) | proliferation of U87-MG cells (CCK assay) (U87-MG cells [3]) | degree of penetration into Matrigel compared to the untreated control (U87-MG cells [2]; [5]) | expression of ANO1 protein compared to the untreated control (ANO1) | expression of EGFR protein compared to the untreated control (EGFR) | further results
COc1cc(N2CCC(N(C)C)CC2)ccc1Nc1ncc(Cl)c(Nc2ccccc2N(C2CC2)S(C)(=O)=O)n1 [AON-MG23-02, N-(2-((5-chloro-2-((4-(4-(dimethylamino)piperidin-1-yl)-2-methoxyphenyl)amino)pyrimidin-4-yl)amino)phenyl)-N-cyclopropylmethanesulfonamide] | > 65 | reduced degree of penetration into Matrigel | inhibits the proliferation of U87-MG cells | – | – | – | expression of ANO1 protein compared to untreated control, EGFR inhibitor, ANO1 inhibitor and combination groups (ANO1; [4]): reduces the expression; expression of EGFR protein compared to untreated control, EGFR inhibitor, ANO1 inhibitor and combination groups (EGFR; [4]): reduces the expression; degree of penetration into Matrigel compared to untreated control, EGFR inhibitor-treated group and ANO1 inhibitor-treated group (U87-MG cells [2]; 4 μM, 16 hours, vs 4 μM Osimertinib, 100 μM CaCCinh-A01, FIGS. 7A, 7B): reduced degree of penetration into Matrigel; expression of pEGFR protein compared to untreated control, EGFR inhibitor, ANO1 inhibitor and combination groups (pEGFR): reduces the expression
COc1cc(N2CCC(N3CCN(C)CC3)CC2)ccc1Nc1ncc(Cl)c(Nc2ccccc2N(C2CC2)S(C)(=O)=O)n1 [AON-MG23-01, N-(2-((5-chloro-2-((2-methoxy-4-(4-(4-methylpiperazin-1-yl)piperidin-1-yl)phenyl)amino)pyrimidin-4-yl)amino)phenyl)-N-cyclopropylmethanesulfonamide] | > 65 | reduced degree of penetration into Matrigel | inhibits the proliferation of U87-MG cells | – | – | – | –
CCN(Cc1ccc2ccccc2c1)CC(O)c1ccc(CN2Cc3ccccc3C2=O)cc1 (stereo not drawn) [AON-MG23-06, 2-(4-(2-(ethyl(naphthalen-2-ylmethyl)amino)-1-hydroxyethyl)benzyl)isoindolin-1-one] | – | – | – | reduced degree of penetration into Matrigel | – | – | –
O=C1c2ccccc2CN1Cc1ccc(CCN(CCO)Cc2ccc3ccccc3c2)cc1 [AON-MG23-05, 2-(4-(2-((2-hydroxyethyl)(naphthalen-2-ylmethyl)amino)ethyl)benzyl)isoindolin-1-one] | – | – | – | reduced degree of penetration into Matrigel | reduced expression | reduced expression | –
O=C1c2ccccc2CN1Cc1ccc(CCP(=O)(Cc2ccc3ccccc3c2)Cc2ccc3ccccc3c2)cc1 [AON-MG23-07, 2-(4-(2-(bis(naphthalen-2-ylmethyl)phosphoryl)ethyl)benzyl)isoindolin-1-one] | – | – | – | reduced degree of penetration into Matrigel | – | – | –
NC(=O)N(CCc1ccc(CN2Cc3ccccc3C2=O)cc1)Cc1ccc2ccccc2c1 [AON-MG23-08, 1-(naphthalen-2-ylmethyl)-1-(4-((1-oxoisoindolin-2-yl)methyl)phenethyl)urea] | – | – | – | reduced degree of penetration into Matrigel | reduced expression | reduced expression | –
